Laboratory results as given in US20250009783A1, “SULFONATED HYALURONIC ACID COMPOUND, PREPARATION METHOD THEREFOR AND APPLICATION THEREOF” (UNIVERSITY OF MACAU, priority 2021, published 2025).

System: CAGA-TGF-β activity reporter cells
Assay: Test using TGF-β activity reporter cell (luciferase test)
Format: cell-based
Conditions: added alone: TGF-β 50 ng/ml, pro-TGF-β1 200 ng/ml, overnight, FIG. 6
Protocol: Method: CAGA-TGF-β activity reporter cells were plated (12-well plate) until the confluence reached 65%. Samples and reagents were added to different wells, respectively. The grouping and concentration were as follows. Group 1:2 ml of TGF-β (50 ng/ml); Group 2:2 ml of pro-TGF-β1 (200 ng/ml); Group 3:2 ml of LLC (200 ng/ml)+S-HA-9 (20 ug/ml); Group 4:2 ml of LLC (200 ng/ml)+PBS (1×); Group 5:2 ml of LLC (200 ng/ml)+S-HA-PBA-1 (20 ug/ml), the cells were stimulated overnight, the samples were collected, and cell lysate was obtained for luciferase test.

Substance | production of active TGF-β (reporter control groups)
proTGF-β: pro-TGF-β1, control group 2 of the reporter cell test (200 ng/ml) | stimulated the production of a very small amount of active TGF-β
TGF-β: transforming growth factor-β, control group 1 of the reporter cell test (50 ng/ml) | stimulated the production of active TGF-β
